The record followed here is patent US10815222B2, “Compounds for use in the treatment of kinetoplastid infection” (C.N.C.C.S. S.c.a.r.l. COLLEZIONE NAZIONALE DEI COMPOSTI …, priority 2016, dated 2020).

The subject of the assay is Bloodstream form of Trypanosoma brucei, strain Lister 427. The assay is described as follows: Trypanosoma brucei growth inhibition assay (CellTiter-Glo, 24 h). Type of assay: cell-based. Particulars: Trypanosoma brucei; T. Brucei Growth Inibition Assay, class symbols; read-out: T. Brucei GI EC50. The procedure, abridged: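 Growth read-out was CellTiter-Glo luminescence after 24 h at 37 °C incubation of 1500 bloodstream-form Lister 427 trypanosomes per well with compound, in supplemented IMDM containing 10% FBS and at most 0.25% DMSO.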
Background: In ATP-based viability assays light output follows the ATP content of the culture.
Usually EC50 stands for the concentration that produces a half-maximal response. In the case of `COc1ccc2cc(C)n(CC(=O)N3CCOCC3c3ncc(-c4cc5ccccc5nc4OC)[nH]3)c2c1` (centres unmarked), the EC50 was in the range of 0.51 to 1 µM. Then `CCC(=O)CCCN1CCN(C(=O)Cn2ccnn2)C(c2ncc(-c3ccc4ccccc4c3)[nH]2)C1` (centres unmarked), with 1.01 to 5 µM; and `COc1nc2ccccc2cc1-c1cnc(C2CN(C(=O)OCc3ccccc3)CCN2C(=O)Cc2c(C)[nH]c3ccc(F)cc23)[nH]1` (centres unmarked), with 1.01 to 5 µM. Then `COc1ccc2[nH]c(C)c(CC(=O)N3CCN(C(=O)OC(C)(C)C)CC3c3ncc(-c4cc5ccccc5nc4OC)[nH]3)c2c1` (centres unmarked), with 0.1 to 0.5 µM; and `COc1ccc2nc(C)n(CC(=O)N3CC[C@H](N(C)Cc4cnccn4)C[C@H]3c3ncc(-c4cc5ccccc5nc4OC)[nH]3)c2c1`, with 0.1 to 0.5 µM; and `COc1ccc2nc(C(F)(F)F)n(CC(=O)N3CCN(CC4CCOC4)CCC3c3ncc(-c4cc5ccccc5nc4OC)[nH]3)c2c1` (centres unmarked) [2-(6-methoxy-2-(trifluoromethyl)-1H-benzo[d]imidazol-1-yl)-1-(7-(5-(2-methoxyquinolin-3-yl)-1H-imidazol-2-yl)-4-((tetrahydrofuran-3-yl)methyl)-1,4-diazepan-1-yl)ethan-1-one], with less than 0.1 µM. For `COc1nc2ccccc2cc1-c1cnc([C@@H]2CN(Cc3ccccn3)CCN2C(=O)Cn2c(C(F)(F)F)nc3ccccc32)[nH]1` [(S)-1-(2-(5-(2-methoxyquinolin-3-yl)-1H-imidazol-2-yl)-4-(pyridin-2-ylmethyl)piperazin-1-yl)-2-(2-(trifluoromethyl)-1H-benzo[d]imidazol-1-yl)ethan-1-one], the EC50 was less than 0.1 µM.

As for `COc1nc2ccccc2cc1-c1cnc([C@@H]2CN(CC3CCOC3)CCN2C(=O)Cn2c(C)nc3ncncc32)[nH]1` (some centres unmarked), the EC50 was in the range of 1.01 to 5 µM. Under `COc1ccc2nc(C(F)(F)F)n(CC(=O)N3CCN(CC4CCOC4)C[C@H]3c3noc(-c4cc5ccccc5nc4OC)n3)c2c1` (stereo partly drawn) [2-(6-methoxy-2-(trifluoromethyl)-1H-benzo[d]imidazol-1-yl)-1-((2S)-2-(5-(2-methoxyquinolin-3-yl)-1,2,4-oxadiazol-3-yl)-4-((tetrahydrofuran-3-yl)methyl)piperazin-1-yl)ethan-1-one] stands 1.01 to 5 µM; under `COc1ccc2nc(C(F)(F)F)n(CC(=O)N3CCN(CCc4ccccn4)CCC3c3ncc(-c4cc5ccccc5nc4OC)[nH]3)c2c1` (centres unmarked) [2-(6-methoxy-2-(trifluoromethyl)-1H-benzo[d]imidazol-1-yl)-1-(7-(5-(2-methoxyquinolin-3-yl)-1H-imidazol-2-yl)-4-(2-(pyridin-2-yl)ethyl)-1,4-diazepan-1-yl)-ethan-1-one], 0.1 to 0.5 µM. Under `COc1ccc2nc(C(F)(F)F)n(CC(=O)N3CCN(CCn4cccn4)C[C@H]3c3ncc(-c4cc5ccccc5nc4OC)[nH]3)c2c1` [(S)-1-(4-(2-(1H-pyrazol-1-yl)ethyl)-2-(5-(2-methoxyquinolin-3-yl)-1H-imidazol-2-yl)piperazin-1-yl)-2-(6-methoxy-2-(trifluoromethyl)-1H-benzo[d]imidazol-1-yl)ethan-1-one] stands less than 0.1 µM.

Take `CCC(=O)CCCN1CCN(C(=O)Cc2ccccc2)C(c2ncc(-c3ccc4ccccc4c3)[nH]2)C1` (centres unmarked): the EC50 was in the range of 1.01 to 5 µM. Then `COc1nc2ccccc2cc1-c1cnc(C2CN(C)CCN2C(=O)Cc2ccccc2)[nH]1` (centres unmarked) [1-(2-(5-(2-methoxyquinolin-3-yl)-1H-imidazol-2-yl)-4-methylpiperazin-1-yl)-2-phenylethan-1-one], with 1.01 to 5 µM; and `COc1nc2ccccc2cc1-c1cnc([C@@H]2CCN(Cc3ccn(C)n3)CCN2C(=O)[C@](OC)(c2ccccc2)C(F)(F)F)[nH]1`, with 1.01 to 5 µM; and `COc1ccc2cc(C)n(CC(=O)N3CCN(C)CCC3c3ncc(-c4cc5ccccc5nc4OC)[nH]3)c2c1` (centres unmarked), with 0.51 to 1 µM. Then `COc1nc2ccccc2cc1-c1cnc([C@@H]2CN(CC3CCOC3)CCN2C(=O)Cn2c(C)nc3cc(C(F)(F)F)ccc32)[nH]1` (some centres unmarked), with 0.1 to 0.5 µM; and `COc1ccc2nc(C(F)(F)F)n(CC(=O)N3CCN(Cc4cnn(C)c4)CCC3c3ncc(-c4cc5ccccc5nc4OC)[nH]3)c2c1` (centres unmarked), with 0.1 to 0.5 µM.
